For one test, the target named is PDE4 h4B1 (Homo sapiens, UniProt Q07343). Kind of test: In-vitro real-time enzyme-coupled spectrophotometric assay for PDE4 enzymes (h4B1). To be noted: PDE4 isoform h4B1; enzyme-coupled NADH assay, absorbance at 340 nm. The format is biochemical. Here is the method: (§1) In-vitro assay for PDE4 enzymes. The in-vitro activity of PDE4 enzymes and the in-vitro potency of therapeutic agents described in the present invention was measured using a real-time, enzyme-coupled spectrophotometric assay. By using three different coupling enzymes, the product of the PDE4 reaction is coupled to the oxidation of the reduced form β-nicotinamide adenine dinucleotide (NADH), which dissipation can be monitored spectrophotmetrically at […].
(§2) Assay description. Buffer A containing 50 mM Tris, pH 8.0, 16 mM MgCl2 and 80 mM KCl is prepared and stored at room temperature. Buffer B containing 50 mM Tris, pH 8.0 is prepared and stored at room temperature. Stock solutions of the following reagents are prepared in Buffer B and stored at −20° C.: Adenosine-5′-triphosphate (ATP), cyclic adenosine-5′-monophosphate (cAMP), phosphoenolpyruvate (PEP) and NADH. An assay mix is prepared by mixing Buffer A, […] (TCEP), ATP, PEP, NADH, myokinase (MK), pyruvate kinase (PK), lactate dehydroganese (LDH) and PDE4 to a final volume of 20 mL, which is enough for a single 96-well assay plate. Assay mix (180 μL) and test article (10 μL) in 1:1 DMSO/H2O mixture is pre-incubated at room temperature for 10 min. The enzymatic reaction is initiated by addition of cAMP (10 μL). Final concentration of all components in the assay (200 μL/well) are as follows: 10 mM MgCl2, 50 mM KCl, 5 mM TCEP, 2.5% DMSO, 0.4 mM NADH, 1 mM PEP, 0.04 mM ATP, 5 units MK, 1 unit PK, 1 unit LDH and appropriate amount of PDE4. Reaction progress curves are monitored in a plate reader capable of measuring light absorbance at 340 nm. A decrease in light absorbance at 340 nm is due to oxidation of NADH. Positive controls containing no test article and negative controls containing no test article and no cAMP are included on every assay plate. Reaction rates are determined from the slopes of the linear portions of the progress curves. All data are percent normalized with respect to controls and presented as percent inhibition.

For another test, the target named is PDE4 h4D7 (Homo sapiens, UniProt Q08499). Put plainly: In-vitro real-time enzyme-coupled spectrophotometric assay for PDE4 enzymes (h4D7). The format is biochemical. Particulars: PDE4 isoform h4D7; enzyme-coupled NADH assay, absorbance at 340 nm. Here is the method:
as §1, §2

For test [1], the system named is leukotriene E4 (LTE4) in human whole blood after Sephadex stimulation. Put plainly: Ex-vivo assay: Sephadex bead stimulated LTE4 production in human whole blood. The test is classed as cell-based. Particulars: 1.5 h; heparinized human whole blood, Sephadex G-15 beads, 37° C. 90 min, LTE4 by immunoassay; read-out: IC50 (inhibition of LTE4 production). As to the method: The activity of PDE4 inhibitors described in the present invention was also measured using in an ex-vivo assay measuring leukotriene E4 (LTE4) in human whole blood after Sephadex stimulation. […] For each sample, 356 μl of heparinized human whole blood (Vacutainer tube #6480) is added to wells of a 96 well plate. Then, 4 μl of a series of compound dilutions (in DMSO) are added in triplicates, suspension mixed and allowed to incubate at 37° C. for 15 min with gentle shaking. After that, blood samples are stimulated by adding 40 μL of Sephadex G-15 beads (Sigma-Aldrich, Sweden). The beads are predissolved in PBS (0.16 g/mL PBS). After mixing, the suspension is incubated at 37° C. for 90 min. Then, 8 μL of 15% EDTA/PBS is added to each sample, mixed and plate centrifuged for 5 min at 115×g at 21° C. and supernatants taken. In each plate, 10 positive controls and 10 negative controls are used, containing DMSO instead of compound solution. The positive controls are stimulated with Sephadex as described for the samples, and in the negative controls (unstimulated), Sephadex solution is replaced by PBS. LTE4 levels in the resulting plasma samples are determined using a commercial enzyme-linked immunoassay (Cayman Chemical Company, Ann Arbor, Mich.) according to the manufacturer's instructions. […]

pIC50: −log10 of the molar value.

PDE4 h4D7, sequence (Q08499 1-748 isoform Q08499-11): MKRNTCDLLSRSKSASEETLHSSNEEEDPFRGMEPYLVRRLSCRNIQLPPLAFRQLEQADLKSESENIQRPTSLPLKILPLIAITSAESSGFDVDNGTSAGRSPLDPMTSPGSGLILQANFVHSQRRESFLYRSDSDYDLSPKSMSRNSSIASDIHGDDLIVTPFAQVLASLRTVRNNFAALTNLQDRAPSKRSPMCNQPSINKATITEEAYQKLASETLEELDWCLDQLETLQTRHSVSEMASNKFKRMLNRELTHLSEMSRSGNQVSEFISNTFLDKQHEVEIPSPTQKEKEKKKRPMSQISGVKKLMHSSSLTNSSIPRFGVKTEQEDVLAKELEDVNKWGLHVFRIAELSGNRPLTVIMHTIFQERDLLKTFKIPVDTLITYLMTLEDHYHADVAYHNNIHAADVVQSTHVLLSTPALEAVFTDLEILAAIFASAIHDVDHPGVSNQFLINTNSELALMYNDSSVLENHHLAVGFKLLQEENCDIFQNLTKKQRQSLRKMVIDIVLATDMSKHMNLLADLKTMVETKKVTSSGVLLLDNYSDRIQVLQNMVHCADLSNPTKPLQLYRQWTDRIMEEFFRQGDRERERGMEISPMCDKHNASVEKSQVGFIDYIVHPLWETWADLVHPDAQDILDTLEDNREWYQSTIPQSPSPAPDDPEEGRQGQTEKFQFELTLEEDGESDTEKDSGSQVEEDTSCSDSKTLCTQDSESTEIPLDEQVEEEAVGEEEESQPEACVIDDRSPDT
PDE4 h4B1, sequence (Q07343 whole entry, canonical isoform): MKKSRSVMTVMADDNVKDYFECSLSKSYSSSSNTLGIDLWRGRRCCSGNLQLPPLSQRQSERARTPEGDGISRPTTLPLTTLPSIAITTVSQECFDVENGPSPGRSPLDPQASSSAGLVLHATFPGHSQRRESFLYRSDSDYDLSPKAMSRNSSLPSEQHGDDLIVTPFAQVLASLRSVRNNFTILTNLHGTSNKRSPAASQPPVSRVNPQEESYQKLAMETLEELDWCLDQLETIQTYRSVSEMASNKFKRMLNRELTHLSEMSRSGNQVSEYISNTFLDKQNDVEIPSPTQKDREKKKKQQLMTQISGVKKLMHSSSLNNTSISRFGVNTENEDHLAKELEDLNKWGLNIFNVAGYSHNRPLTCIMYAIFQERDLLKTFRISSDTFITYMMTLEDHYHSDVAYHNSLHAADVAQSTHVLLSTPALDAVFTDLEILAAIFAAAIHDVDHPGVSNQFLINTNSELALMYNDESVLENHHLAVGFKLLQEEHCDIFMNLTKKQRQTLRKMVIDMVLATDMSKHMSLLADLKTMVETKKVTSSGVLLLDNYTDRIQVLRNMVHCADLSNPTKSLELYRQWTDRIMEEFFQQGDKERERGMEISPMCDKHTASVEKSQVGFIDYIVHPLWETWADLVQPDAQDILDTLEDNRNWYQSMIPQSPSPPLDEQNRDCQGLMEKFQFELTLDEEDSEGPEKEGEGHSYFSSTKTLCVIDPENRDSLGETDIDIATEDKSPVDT

Regarding `COc1ccc(Cc2ccc(NC(N)=O)cc2)c(F)c1Oc1ccc(F)cc1` [Example P-11, {4-[2-Fluoro-3-(4-fluoro-phenoxy)-4-methoxy-benzyl]-phenyl}-urea], the pIC50 is 5.00 to 6.00 at PDE4 h4B1 and over 6.00 at PDE4 h4D7.

With `COc1ccc(Cc2ccc(N)nc2)cc1Oc1cccc(Cl)c1` [Example P-05, 5-[3-(3-Chloro-phenoxy)-4-methoxy-benzyl]-pyridin-2-ylamine], the results for the pIC50 against PDE4 h4B1 and against PDE4 h4D7 were 4.70 to 4.96 and 5.00 to 6.00, respectively.

Turning to `COc1ccc(Cc2ccc(NC(C)=O)cc2)c(F)c1Oc1ccc(F)cc1` [Example P-10, N-{4-[2-Fluoro-3-(4-fluoro-phenoxy)-4-methoxy-benzyl]-phenyl}-acetamide], the pIC50 is under 4.68 against PDE4 h4B1 and 4.70 to 4.96 on PDE4 h4D7.

Consider `COc1ccc(Cc2ccc(NS(C)(=O)=O)cc2)cc1Oc1ccccc1` [Example P-04, N-[4-(4-Methoxy-3-phenoxy-benzyl)-phenyl]-methanesulfonamide], for which the pIC50 at PDE4 h4B1 and on PDE4 h4D7 was under 4.68 each time.

As to `COc1ccc(Cc2ccc(NC(N)=O)cc2)c(F)c1Oc1ccccn1` [Example P-12], the values for the pIC50 at PDE4 h4B1 and against PDE4 h4D7 were under 4.68 and over 6.00, respectively.

Take `COc1ccc(Cc2ccc(F)cc2)c(F)c1Oc1cccc([N+](=O)[O-])c1` [Example P-01, 2-Fluoro-1-(4-fluoro-benzyl)-4-methoxy-3-(3-nitro-phenoxy)-benzene]: the pIC50 is under 4.68 at PDE4 h4B1, over 6.00 against PDE4 h4D7 and over 6.00 in test [1].

`COc1ccc(Cc2ccc(N)cc2)cc1Oc1cccc(Cl)c1` [Example P-07, 4-[3-(3-Chloro-phenoxy)-4-methoxy-benzyl]-phenylamine]: the pIC50 against PDE4 h4B1 and on PDE4 h4D7 was 5.00 to 6.00 in each case.

Regarding `COc1ccc(Cc2ccc(NC(N)=O)nc2)cc1Oc1cccc(Cl)c1` [Example P-06, {5-[3-(3-Chloro-phenoxy)-4-methoxy-benzyl]-pyridin-2-yl}-urea], the pIC50 against PDE4 h4B1 and at PDE4 h4D7 was 5.00 to 6.00 in each case.

On to `COc1ccc(Cc2ccc(O)cc2)cc1Oc1cccc(Cl)c1` [Example P-08, 4-[3-(3-chloro-phenoxy)-4-methoxy-benzyl]-phenol], for which the figures for the negative-log IC50 (pIC50) on PDE4 h4B1 and on PDE4 h4D7 were under 4.68 and 5.00 to 6.00, respectively.

In the case of `COc1ccc(Cc2ccc(F)cc2)c(F)c1Oc1cccc(N)c1` [Example P-02, 3-[2-Fluoro-3-(4-fluoro-benzyl)-6-methoxy-phenoxy]-phenylamine], the pIC50 on PDE4 h4B1 and at PDE4 h4D7 was under 4.68 each time.

For the compound `COc1ccc(Cc2ccc(F)cc2)c(F)c1Oc1cccc(Cl)c1` [Example P-03, 2-(3-Chloro-phenoxy)-3-fluoro-4-(4-fluoro-benzyl)-1-methoxy-benzene], the figures for the pIC50 on PDE4 h4B1 and on PDE4 h4D7 were 5.00 to 6.00 and over 6.00, respectively.

With `COc1ccc(Cc2ccc(NS(C)(=O)=O)nc2)cc1Oc1cccc(Cl)c1` [Example P-09, N-{5-[3-(3-Chloro-phenoxy)-4-methoxy-benzyl]-pyridin-2-yl}-methanesulfonamide], the pIC50 at PDE4 h4B1 was under 4.68; on PDE4 h4D7, 5.00 to 6.00.

Usually pIC50 stands for −log10 of the IC50, conventionally taken in molar units.
